In ChEMBL document CHEMBL2321833, “Design and optimization of selective protein kinase C θ (PKCθ) inhibitors for the treatment of autoimmune diseases” (J Med Chem, 2013):

Legend:
[1] = biological target: T1, Protein kinase C theta type (Homo sapiens, UniProt Q04759); experiment: Inhibition of PKC-theta in human PBMC cells assessed as inhibition of IL-2 after 24 hrs by bead-based FLISA assay; format: cell-based
[2] = biological target: Protein kinase C alpha type (Homo sapiens, UniProt P17252); experiment: Inhibition of PKC alpha (unknown origin) using RRRRRKGSFKRKA as substrate after 15 mins by spectrophotometry in presence of ATP
[3] = biological target: T1, Protein kinase C theta type; experiment: Inhibition of full-length recombinant PKC theta (unknown origin) using ERMRPRKRQGSVRRRV as substrate after 60 mins by scintillation counting analysis in presence of [gamma-33P]ATP
[4] = biological target: Protein kinase C delta type (Homo sapiens, UniProt Q05655); experiment: Inhibition of PKC delta (unknown origin) using ERMRPRKRQGSVRRRV as substrate after 15 mins by spectrophotometry in presence of ATP
Protein kinase C delta type, sequence (Q05655 whole entry): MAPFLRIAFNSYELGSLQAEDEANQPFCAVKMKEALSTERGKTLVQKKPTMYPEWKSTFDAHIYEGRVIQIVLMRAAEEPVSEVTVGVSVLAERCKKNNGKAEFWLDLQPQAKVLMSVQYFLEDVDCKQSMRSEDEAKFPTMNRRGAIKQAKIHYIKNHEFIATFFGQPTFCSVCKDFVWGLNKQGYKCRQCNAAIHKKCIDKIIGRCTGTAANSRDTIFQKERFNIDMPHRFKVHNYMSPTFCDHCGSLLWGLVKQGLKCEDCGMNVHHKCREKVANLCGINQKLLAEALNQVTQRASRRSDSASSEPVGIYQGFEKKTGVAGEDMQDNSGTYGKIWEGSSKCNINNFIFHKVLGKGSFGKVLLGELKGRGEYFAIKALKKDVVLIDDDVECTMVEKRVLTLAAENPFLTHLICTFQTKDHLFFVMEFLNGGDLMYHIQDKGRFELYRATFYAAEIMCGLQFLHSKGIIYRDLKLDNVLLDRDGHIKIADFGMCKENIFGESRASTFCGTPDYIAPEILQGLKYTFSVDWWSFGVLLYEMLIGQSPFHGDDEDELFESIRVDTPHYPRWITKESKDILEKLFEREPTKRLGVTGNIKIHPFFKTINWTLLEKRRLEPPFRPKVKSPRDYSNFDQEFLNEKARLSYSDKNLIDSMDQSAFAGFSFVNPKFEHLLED

[5] = biological target: Tyrosine-protein kinase Fyn (Homo sapiens, UniProt P06241); experiment: Inhibition of Fyn (unknown origin)
Tyrosine-protein kinase Fyn, sequence (P06241 whole entry): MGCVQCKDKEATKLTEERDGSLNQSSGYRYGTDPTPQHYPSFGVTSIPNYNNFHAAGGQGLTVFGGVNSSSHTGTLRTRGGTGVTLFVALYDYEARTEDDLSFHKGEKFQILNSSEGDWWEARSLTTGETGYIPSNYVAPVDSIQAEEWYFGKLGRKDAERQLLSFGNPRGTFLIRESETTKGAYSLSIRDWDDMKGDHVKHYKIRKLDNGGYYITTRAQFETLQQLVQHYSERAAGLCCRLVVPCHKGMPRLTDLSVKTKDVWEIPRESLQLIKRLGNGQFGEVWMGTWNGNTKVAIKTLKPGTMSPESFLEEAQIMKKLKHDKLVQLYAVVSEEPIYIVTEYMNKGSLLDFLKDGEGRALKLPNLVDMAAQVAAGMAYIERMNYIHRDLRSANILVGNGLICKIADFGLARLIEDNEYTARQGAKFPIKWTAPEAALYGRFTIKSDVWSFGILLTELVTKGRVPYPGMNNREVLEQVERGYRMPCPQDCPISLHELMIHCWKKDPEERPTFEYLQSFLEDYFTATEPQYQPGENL

[6] = Oral bioavailability in rat at 10 mg/kg; format: ADME, organism-based; details: in vivo
[7] = biological target: Protein kinase C eta type (Homo sapiens, UniProt P24723); experiment: Inhibition of PKC eta (unknown origin)
Protein kinase C eta type, sequence (P24723 whole entry): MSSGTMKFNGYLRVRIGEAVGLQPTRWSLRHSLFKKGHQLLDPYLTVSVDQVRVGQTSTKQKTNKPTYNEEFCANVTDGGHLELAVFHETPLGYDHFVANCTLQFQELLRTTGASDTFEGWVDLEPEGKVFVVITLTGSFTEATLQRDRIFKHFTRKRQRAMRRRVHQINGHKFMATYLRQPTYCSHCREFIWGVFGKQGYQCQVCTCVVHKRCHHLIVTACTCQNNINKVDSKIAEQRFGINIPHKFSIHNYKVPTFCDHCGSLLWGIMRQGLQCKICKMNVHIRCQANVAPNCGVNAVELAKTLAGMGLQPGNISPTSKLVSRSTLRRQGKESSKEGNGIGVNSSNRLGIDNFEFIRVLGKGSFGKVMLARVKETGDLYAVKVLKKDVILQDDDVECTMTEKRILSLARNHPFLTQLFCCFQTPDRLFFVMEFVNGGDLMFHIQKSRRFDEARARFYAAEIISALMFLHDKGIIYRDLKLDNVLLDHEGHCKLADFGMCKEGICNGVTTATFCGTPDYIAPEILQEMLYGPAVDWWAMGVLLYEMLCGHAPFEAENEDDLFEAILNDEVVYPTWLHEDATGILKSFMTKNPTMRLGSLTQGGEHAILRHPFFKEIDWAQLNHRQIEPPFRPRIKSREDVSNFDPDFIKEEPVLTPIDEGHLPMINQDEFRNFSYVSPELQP

[8] = biological target: RAF proto-oncogene serine/threonine-protein kinase (Homo sapiens, UniProt P04049); experiment: Inhibition of c-Raf (unknown origin)
[9] = biological target: Mitogen-activated protein kinase 3 (Homo sapiens, UniProt P27361); experiment: Inhibition of Erk-1 (unknown origin)
Mitogen-activated protein kinase 3, sequence (P27361 whole entry): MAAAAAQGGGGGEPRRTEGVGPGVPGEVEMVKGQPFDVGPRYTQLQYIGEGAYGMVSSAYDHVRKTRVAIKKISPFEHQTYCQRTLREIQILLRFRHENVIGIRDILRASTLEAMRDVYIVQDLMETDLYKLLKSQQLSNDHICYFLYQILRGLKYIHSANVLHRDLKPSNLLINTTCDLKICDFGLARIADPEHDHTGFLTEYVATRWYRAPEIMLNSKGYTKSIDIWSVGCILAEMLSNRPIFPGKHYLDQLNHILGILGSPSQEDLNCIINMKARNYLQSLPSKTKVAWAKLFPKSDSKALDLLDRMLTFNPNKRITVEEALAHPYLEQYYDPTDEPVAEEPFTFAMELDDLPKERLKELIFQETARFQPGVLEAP

[10] = biological target: T2, Protein kinase C epsilon type (Homo sapiens, UniProt Q02156); experiment: Inhibition of PKC epsilon (unknown origin)
T2 sequence (Q02156 whole entry): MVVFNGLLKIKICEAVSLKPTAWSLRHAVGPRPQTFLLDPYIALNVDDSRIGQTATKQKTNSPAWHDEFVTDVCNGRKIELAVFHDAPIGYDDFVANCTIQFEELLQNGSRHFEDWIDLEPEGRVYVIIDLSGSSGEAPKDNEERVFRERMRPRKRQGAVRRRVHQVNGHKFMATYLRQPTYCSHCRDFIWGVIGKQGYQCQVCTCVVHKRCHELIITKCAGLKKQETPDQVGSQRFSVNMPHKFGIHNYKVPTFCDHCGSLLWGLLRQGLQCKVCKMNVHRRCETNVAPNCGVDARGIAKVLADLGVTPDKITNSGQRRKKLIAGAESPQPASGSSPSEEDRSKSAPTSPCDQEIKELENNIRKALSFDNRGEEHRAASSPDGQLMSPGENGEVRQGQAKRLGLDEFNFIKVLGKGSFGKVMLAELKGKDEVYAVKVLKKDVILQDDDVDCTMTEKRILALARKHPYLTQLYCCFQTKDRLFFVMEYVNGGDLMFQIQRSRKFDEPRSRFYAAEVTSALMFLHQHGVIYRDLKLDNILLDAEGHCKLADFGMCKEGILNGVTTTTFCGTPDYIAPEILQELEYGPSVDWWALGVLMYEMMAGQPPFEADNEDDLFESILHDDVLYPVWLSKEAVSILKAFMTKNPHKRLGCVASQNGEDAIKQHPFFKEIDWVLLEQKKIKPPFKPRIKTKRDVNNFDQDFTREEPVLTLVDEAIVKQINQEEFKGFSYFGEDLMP

[11] = test system: Blood; experiment: Inhibition of PKC theta in human whole blood assessed as IL-2 level after 1 hr by ELISA; format: functional, tissue-based
[12] = Cmax in Balb/c mouse at 25 mg/kg, po; format: ADME, organism-based; set-up: dose 25 mg/kg, route oral; details: in vivo
[13] = biological target: T3, Serine/threonine-protein kinase D1 (Homo sapiens, UniProt Q15139); experiment: Inhibition of PKC mu (unknown origin)
T3 sequence (Q15139 whole entry): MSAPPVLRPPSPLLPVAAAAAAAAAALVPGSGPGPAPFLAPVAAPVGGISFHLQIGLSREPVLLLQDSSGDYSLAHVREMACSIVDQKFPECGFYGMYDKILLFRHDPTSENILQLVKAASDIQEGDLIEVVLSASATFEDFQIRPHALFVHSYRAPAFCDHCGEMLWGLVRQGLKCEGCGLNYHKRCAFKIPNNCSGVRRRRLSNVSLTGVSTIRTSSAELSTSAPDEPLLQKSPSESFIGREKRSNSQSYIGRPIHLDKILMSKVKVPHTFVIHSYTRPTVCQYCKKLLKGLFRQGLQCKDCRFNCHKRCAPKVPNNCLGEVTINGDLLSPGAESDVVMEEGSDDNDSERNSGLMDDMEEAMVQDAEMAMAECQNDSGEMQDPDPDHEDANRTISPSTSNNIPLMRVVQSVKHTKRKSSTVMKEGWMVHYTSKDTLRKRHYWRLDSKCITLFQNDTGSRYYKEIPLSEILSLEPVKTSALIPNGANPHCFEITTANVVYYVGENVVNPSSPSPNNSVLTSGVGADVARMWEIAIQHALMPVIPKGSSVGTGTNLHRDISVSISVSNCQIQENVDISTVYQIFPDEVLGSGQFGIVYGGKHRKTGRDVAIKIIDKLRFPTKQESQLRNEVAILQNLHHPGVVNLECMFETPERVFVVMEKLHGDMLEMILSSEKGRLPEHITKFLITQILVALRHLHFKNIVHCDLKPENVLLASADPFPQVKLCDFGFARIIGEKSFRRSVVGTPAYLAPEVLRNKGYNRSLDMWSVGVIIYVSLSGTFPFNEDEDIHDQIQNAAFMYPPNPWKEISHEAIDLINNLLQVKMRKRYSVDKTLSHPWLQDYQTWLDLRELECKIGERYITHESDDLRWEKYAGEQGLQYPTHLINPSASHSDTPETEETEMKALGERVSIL

[14] = biological target: Tyrosine-protein kinase Lck (Homo sapiens, UniProt P06239); experiment: Inhibition of Lck (unknown origin)
[15] = biological target: Tyrosine-protein kinase Lyn (Homo sapiens, UniProt P07948); experiment: Inhibition of Lyn (unknown origin)
[16] = Clearance in rat at 3 mg/kg, iv and 10 mg/kg, po; format: ADME, organism-based; details: in vivo
[17] = biological target: T4, Tyrosine-protein kinase ITK/TSK (Homo sapiens, UniProt Q08881); experiment: Inhibition of Itk (unknown origin)
T4 sequence (Q08881 whole entry): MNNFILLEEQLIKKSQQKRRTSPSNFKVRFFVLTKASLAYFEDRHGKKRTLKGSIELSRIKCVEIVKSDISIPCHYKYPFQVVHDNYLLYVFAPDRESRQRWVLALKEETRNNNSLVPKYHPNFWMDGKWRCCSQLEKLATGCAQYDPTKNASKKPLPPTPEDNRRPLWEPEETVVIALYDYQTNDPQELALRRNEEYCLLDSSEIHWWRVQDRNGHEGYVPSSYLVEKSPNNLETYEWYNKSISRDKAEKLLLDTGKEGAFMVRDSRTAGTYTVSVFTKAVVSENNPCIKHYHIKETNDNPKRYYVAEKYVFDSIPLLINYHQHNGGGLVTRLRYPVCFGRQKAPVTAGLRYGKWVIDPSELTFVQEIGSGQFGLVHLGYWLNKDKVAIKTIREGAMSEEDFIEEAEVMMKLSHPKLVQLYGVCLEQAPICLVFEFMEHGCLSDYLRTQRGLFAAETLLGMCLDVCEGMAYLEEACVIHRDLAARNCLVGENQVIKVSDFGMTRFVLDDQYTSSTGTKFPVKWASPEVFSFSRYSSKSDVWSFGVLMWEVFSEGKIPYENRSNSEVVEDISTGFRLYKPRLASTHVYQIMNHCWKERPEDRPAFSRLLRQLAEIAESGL

[18] = biological target: T5, Protein kinase C zeta type (Homo sapiens, UniProt Q05513); experiment: Inhibition of PKC zeta (unknown origin)
T5 sequence (Q05513 whole entry): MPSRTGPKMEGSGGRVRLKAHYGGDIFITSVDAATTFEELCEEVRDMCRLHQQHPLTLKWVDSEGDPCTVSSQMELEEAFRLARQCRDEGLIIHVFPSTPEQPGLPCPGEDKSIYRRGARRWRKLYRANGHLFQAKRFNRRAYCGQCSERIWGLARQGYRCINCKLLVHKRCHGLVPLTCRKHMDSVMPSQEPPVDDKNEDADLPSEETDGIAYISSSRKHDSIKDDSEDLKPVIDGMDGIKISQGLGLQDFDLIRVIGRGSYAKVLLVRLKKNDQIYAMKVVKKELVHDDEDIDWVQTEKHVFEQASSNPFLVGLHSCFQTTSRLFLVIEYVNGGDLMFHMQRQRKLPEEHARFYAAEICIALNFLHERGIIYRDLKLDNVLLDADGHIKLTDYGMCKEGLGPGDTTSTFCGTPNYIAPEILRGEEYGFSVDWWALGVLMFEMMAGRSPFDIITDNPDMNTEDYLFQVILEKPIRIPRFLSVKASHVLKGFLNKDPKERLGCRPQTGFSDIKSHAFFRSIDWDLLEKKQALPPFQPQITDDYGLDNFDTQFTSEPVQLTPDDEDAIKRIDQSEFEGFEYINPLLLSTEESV

[19] = Half life in rat at 3 mg/kg, iv and 10 mg/kg, po; format: ADME, organism-based; details: in vivo
[20] = biological target: T6, Protein kinase C beta type (Homo sapiens, UniProt P05771); experiment: Inhibition of PKC beta2 (unknown origin)
T6 sequence (P05771 whole entry): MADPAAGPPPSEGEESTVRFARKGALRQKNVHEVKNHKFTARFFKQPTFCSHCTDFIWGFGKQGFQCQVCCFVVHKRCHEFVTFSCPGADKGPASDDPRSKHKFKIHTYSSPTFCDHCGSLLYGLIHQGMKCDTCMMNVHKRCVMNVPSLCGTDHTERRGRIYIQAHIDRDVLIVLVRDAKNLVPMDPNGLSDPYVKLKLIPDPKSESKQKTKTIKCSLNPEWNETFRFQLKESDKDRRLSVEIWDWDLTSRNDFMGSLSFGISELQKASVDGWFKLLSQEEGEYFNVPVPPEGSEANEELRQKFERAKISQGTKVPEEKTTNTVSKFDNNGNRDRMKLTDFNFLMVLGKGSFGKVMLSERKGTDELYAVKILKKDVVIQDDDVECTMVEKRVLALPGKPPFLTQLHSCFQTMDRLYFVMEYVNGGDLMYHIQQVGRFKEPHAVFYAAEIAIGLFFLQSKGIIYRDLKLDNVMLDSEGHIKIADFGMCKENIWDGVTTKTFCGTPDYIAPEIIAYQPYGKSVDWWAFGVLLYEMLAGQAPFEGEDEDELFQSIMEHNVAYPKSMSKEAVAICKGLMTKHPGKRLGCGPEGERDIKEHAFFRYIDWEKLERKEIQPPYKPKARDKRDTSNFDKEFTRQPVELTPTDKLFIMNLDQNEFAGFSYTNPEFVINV

[21] = biological target: T7, Tyrosine-protein kinase ZAP-70 (Homo sapiens, UniProt P43403); experiment: Inhibition of Zap70 (unknown origin)
T7 sequence (P43403 whole entry): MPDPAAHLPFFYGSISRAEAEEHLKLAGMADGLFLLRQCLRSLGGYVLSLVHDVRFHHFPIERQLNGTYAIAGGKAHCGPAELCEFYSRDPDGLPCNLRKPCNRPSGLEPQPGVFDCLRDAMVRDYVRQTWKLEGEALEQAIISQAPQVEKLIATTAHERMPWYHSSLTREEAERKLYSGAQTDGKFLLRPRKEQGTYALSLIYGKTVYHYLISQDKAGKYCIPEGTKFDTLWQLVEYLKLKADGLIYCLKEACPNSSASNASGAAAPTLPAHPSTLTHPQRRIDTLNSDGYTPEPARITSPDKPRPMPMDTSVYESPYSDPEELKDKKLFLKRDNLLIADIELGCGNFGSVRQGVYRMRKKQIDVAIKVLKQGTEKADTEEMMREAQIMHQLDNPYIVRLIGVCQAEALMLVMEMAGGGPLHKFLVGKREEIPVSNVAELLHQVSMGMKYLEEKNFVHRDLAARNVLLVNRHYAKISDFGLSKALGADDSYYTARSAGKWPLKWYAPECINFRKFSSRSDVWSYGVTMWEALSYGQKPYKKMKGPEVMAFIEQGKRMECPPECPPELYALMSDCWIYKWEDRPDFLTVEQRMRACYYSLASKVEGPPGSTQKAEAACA

[22] = biological target: T6, Protein kinase C beta type; experiment: Inhibition of PKC beta1 (unknown origin)
[23] = biological target: Protein kinase C gamma type (Homo sapiens, UniProt P05129); experiment: Inhibition of PKC gamma (unknown origin)

T1 sequence (Q04759 whole entry): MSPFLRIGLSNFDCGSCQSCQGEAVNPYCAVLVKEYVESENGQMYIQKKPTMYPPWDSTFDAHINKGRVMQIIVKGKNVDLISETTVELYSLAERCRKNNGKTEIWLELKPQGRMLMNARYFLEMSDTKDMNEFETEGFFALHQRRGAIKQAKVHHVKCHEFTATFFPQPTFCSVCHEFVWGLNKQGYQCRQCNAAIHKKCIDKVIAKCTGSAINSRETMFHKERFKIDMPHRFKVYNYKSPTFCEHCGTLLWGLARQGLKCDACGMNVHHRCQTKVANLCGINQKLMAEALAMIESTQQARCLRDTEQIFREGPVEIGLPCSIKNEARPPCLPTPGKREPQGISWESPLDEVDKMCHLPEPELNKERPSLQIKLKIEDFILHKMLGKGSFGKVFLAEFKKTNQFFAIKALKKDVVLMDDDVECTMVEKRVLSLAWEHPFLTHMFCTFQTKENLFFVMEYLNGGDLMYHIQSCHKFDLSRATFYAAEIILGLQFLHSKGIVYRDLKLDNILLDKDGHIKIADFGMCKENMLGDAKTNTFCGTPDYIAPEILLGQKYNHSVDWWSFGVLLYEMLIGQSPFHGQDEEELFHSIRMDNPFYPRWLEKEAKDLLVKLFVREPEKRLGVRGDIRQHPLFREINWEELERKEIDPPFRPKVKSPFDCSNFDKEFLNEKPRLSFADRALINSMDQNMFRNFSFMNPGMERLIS

IC50 [1] | Ki [2] | Ki [3] | Ki [4] | SMILES | further results
4 nM | 56 nM | 0.1 nM | < 10 nM | CC(C)[C@@](C)(O)[C@@H]1CN(c2nc(-c3n[nH]c4ncccc34)c(F)cc2O)CCN1 | 
 |  |  | 120 nM | CC(C)[C@](C)(O)[C@@H]1CN(c2ccc(F)c(-c3n[nH]c4ncccc34)n2)CCN1 | 
1 nM | 205 nM | 0.1 nM | < 10 nM | CC(C)[C@@](C)(O)[C@@H]1CN(c2nc(-c3n[nH]c4ncccc34)c(F)cc2CO)CCN1 | 
420 nM | > 1250 nM | 20 nM | 957 nM | CC(C)[C@@](C)(O)[C@@H]1CN(c2ccc(C(F)(F)F)c(-c3n[nH]c4ncccc34)n2)CCN1 (racemic) | 
 |  | > 700 nM | > 1250 nM | CC(C)C[C@H]1CN(c2ccc(F)c(-c3n[nH]c4ncccc34)n2)C[C@H](C)N1 | 
 |  |  | > 1250 nM | CC(C)[C@@](C)(O)[C@H]1CN(c2ccc(F)c(-c3n[nH]c4ncccc34)n2)CCN1 | 
 |  |  | 358 nM | CC(C)C[C@H]1CN(c2ccc(F)c(-c3n[nH]c4ncccc34)n2)CCN1 | 
 | 1230 nM |  |  | c1cc(-c2n[nH]c3ncccc23)nc(N2CCNCC2)c1 | 
11 nM | 356 nM | 0.08 nM | 16 nM | CC(C)[C@@](C)(O)[C@@H]1CN(c2nc(-c3n[nH]c4ncccc34)c(F)cc2Cl)CCN1 | Ki [5]: > 1000 nM; bioavailability [6]: 65%; Ki [7]: 3.5 nM; Ki [8]: > 1000 nM; Ki [9]: > 1000 nM; Ki [10]: 1 nM; IC50 [11]: 70 nM; Cmax [12]: 700 ng/mL; Ki [13]: 2420 nM; Ki [14]: > 1000 nM; Ki [15]: > 1000 nM; clearance [16]: 7 mL/min/kg; Ki [17]: > 1000 nM; Ki [18]: > 5000 nM; half-life [19]: 4.7 h; Ki [20]: 393 nM; Ki [21]: > 1000 nM; Ki [22]: 15 nM; Ki [23]: 725 nM
